Experimental data: article PMC6321055, “Synthesis of Novel ent-Kaurane-Type Diterpenoid Derivatives Effective for Highly Aggressive Tumor Cells” (Molecules, 2018)

How the values were obtained:
NSCLC-H292 = assay: MTT cytotoxicity assay, NSCLC-H292; conditions: Homo sapiens, 24 h, read-out: In vitro cytotoxic activity IC50, NSCLC-H292
Method: (§1) Cells were purchased from the Wuxi Innovatbio Medicine Technology Co. LTD (Wuxi, China) and were maintained at 37 °C under the atmosphere of 5% CO2. The cells of human non-small lung cancer (H292) and colon cancer cell line (SNU-1040) cells were cultured in RPMI-medium and others (rat myoblasts and HepG2) were cultured in dulbecco′s modified eagle medium (DMEM). 10% fetal bovine serum (Tianhang Biotechnology Co., Ltd., Zhejiang, China) and 1% antibiotics (100 U/mL penicillin and 100 mg/mL streptomycin) was supplemented. Cells are inoculated in 96-well plate and cultured for 24 h. After attached to the culture bottle wall cells were divided cells into three groups, (1) control group; (2) positive control group; (3) experiment group. […] After 24 h, 10% MTT was added and cells were culture for 3.5 h. Then the culture medium was discard and 150 µL DMSO was added. Eventually, after incubation for 10 min by shaking in the dark at room temperature, the absorbance was detected at 490 nm using a microplate reader, and the difference was analyzed by prism 7 software.

SNU-1040 = assay: MTT cytotoxicity assay, SNU-1040; conditions: Homo sapiens, 24 h, read-out: In vitro cytotoxic activity IC50, SNU-1040
Method: as §1

HepG2 = assay: MTT cytotoxicity assay, HepG2; conditions: for IC50: Homo sapiens, HepG2, 24 h, read-out: In vitro cytotoxic activity IC50, HepG2; for SI (selective index, IC50 of normal cells/IC50 of tumor cells): IC50 L6 / IC50 HepG2
Method: as §1

in vitro = conditions: rat
Method: as §1

[1] = MTT cytotoxicity assay, L6 normal cells; conditions: rat, L6 rat myotube cells (normal cells)
Method: as §1

Structure (SMILES) | IC50 (NSCLC-H292) | IC50 (SNU-1040) | IC50 (HepG2) | melting point | IC50 at 24 h (in vitro) | SI (selective index, IC50 of normal cells/IC50 of tumor cells) (HepG2) | IC50 at 24 h [1]
C=C1C[C@]2(C(=O)OCC)C[C@H]1C(=O)C[C@@H]2C1CC(C)(C)C=CC1=O (some centres unmarked) [Compound 13] | 4440 nM | 1410 nM | > 10000 nM | 112 to 114.6 °C | > 10000 nM |  | 
C=C1C[C@]2(C(=O)OCC)C[C@H]1C(=O)C[C@H]2C1CC(C)(C)C=CC1=O (some centres unmarked) [Compound 14] | 2950 nM | 1720 nM | > 10000 nM | 103.2 to 105.8 °C | > 10000 nM |  | 
C=C1C(O)[C@]2(C(=O)OCC)C[C@H]1C(=O)C[C@@H]2C1CC(C)(C)C=CC1=O (some centres unmarked) [Compound 15] | 1990 nM | 3130 nM | 1810 nM |  | > 10000 nM |  | 
C=C1C(=O)[C@]2(C(=O)OCC)C[C@H]1C(=O)C[C@@H]2C1CC(C)(C)C=CC1=O (some centres unmarked) [Compound 16] | 1690 nM | 2440 nM | 330 nM |  | > 10000 nM | 161.06 | 
C=C1C(O)[C@]2(C(=O)OCC)C[C@H]1C(=O)C[C@H]2C1CC(C)(C)C=CC1=O (some centres unmarked) [Compound 17] | 990 nM | 2820 nM | 1580 nM |  | > 10000 nM | 47.80 | 
C=C1C(=O)[C@]2(C(=O)OCC)C[C@H]1C(=O)C[C@H]2C1CC(C)(C)C=CC1=O (some centres unmarked) [Compound 18] | 1350 nM | 3010 nM | 560 nM |  | > 10000 nM |  | 
C=C1C(=O)[C@]23C[C@H]1CC[C@H]2[C@@]12CO[C@]3(O)[C@@H](O)[C@@H]1C(C)(C)C=CC2=O [Eriocalyxin B, reference compound] | 7110 nM | 1540 nM | 2120 nM |  |  |  | > 10000 nM
